# Source: ChEMBL document CHEMBL4627246, “Pyroglutamide-Based P2X7 Receptor Antagonists Targeting Inflammatory Bowel Disease” (J Med Chem, 2020)
# Tested on: T47D
# Experiment: Cytotoxicity against human T47D cells assessed as effect on cell growth at 10 uM incubated for 48 hrs by sulforhodamine B assay
# Format: cell-based
# Conditions: not given
row,Structure (SMILES),Activity
1,CN(C)C(=O)[C@@H]1CCC(=O)N1,Non-Toxic
2,O=C(NCc1ccc(Cl)cc1Cl)[C@@H]1CCC(=O)N1C(c1ccc(Cl)cc1)c1ccc(Cl)cc1,Non-Toxic
3,O=C(NCc1ccc(Cl)cc1Cl)[C@@H]1CCC(=O)N1c1cncs1,Non-Toxic

# Tested on: HCC 2998
# Experiment: Cytotoxicity against human HCC2998 cells assessed as effect on cell growth at 10 uM incubated for 48 hrs by sulforhodamine B assay
# Format: cell-based
# Conditions: hcc 2998, 48 h
row,Structure (SMILES),Activity
1,CN(C)C(=O)[C@@H]1CCC(=O)N1,Non-Toxic
2,O=C(NCc1ccc(Cl)cc1Cl)[C@@H]1CCC(=O)N1C(c1ccc(Cl)cc1)c1ccc(Cl)cc1,Non-Toxic
3,O=C(NCc1ccc(Cl)cc1Cl)[C@@H]1CCC(=O)N1c1cncs1,Non-Toxic

# Tested on: SNB-75
# Experiment: Cytotoxicity against human SNB75 cells assessed as effect on cell growth at 10 uM incubated for 48 hrs by sulforhodamine B assay
# Format: cell-based
# Conditions: snb-75, 48 h
row,Structure (SMILES),Activity
1,CN(C)C(=O)[C@@H]1CCC(=O)N1,Non-Toxic
2,O=C(NCc1ccc(Cl)cc1Cl)[C@@H]1CCC(=O)N1C(c1ccc(Cl)cc1)c1ccc(Cl)cc1,Non-Toxic
3,O=C(NCc1ccc(Cl)cc1Cl)[C@@H]1CCC(=O)N1c1cncs1,Non-Toxic

# Tested on: OVCAR-8
# Experiment: Cytotoxicity against human OVCAR8 cells assessed as effect on cell growth at 10 uM incubated for 48 hrs by sulforhodamine B assay
# Format: cell-based
# Conditions: ovcar-8, 48 h
row,Structure (SMILES),Activity
1,CN(C)C(=O)[C@@H]1CCC(=O)N1,Non-Toxic
2,O=C(NCc1ccc(Cl)cc1Cl)[C@@H]1CCC(=O)N1C(c1ccc(Cl)cc1)c1ccc(Cl)cc1,Non-Toxic
3,O=C(NCc1ccc(Cl)cc1Cl)[C@@H]1CCC(=O)N1c1cncs1,Non-Toxic

# Tested on: MDA-MB-468
# Experiment: Cytotoxicity against human MDA-MB-468 cells assessed as effect on cell growth at 10 uM incubated for 48 hrs by sulforhodamine B assay
# Format: cell-based
# Conditions: mda-mb-468, 48 h
row,Structure (SMILES),Activity
1,CN(C)C(=O)[C@@H]1CCC(=O)N1,Non-Toxic
2,O=C(NCc1ccc(Cl)cc1Cl)[C@@H]1CCC(=O)N1C(c1ccc(Cl)cc1)c1ccc(Cl)cc1,Non-Toxic
3,O=C(NCc1ccc(Cl)cc1Cl)[C@@H]1CCC(=O)N1c1cncs1,Non-Toxic

# Tested on: NCI-H322M
# Experiment: Cytotoxicity against human NCI-H322M cells assessed as effect on cell growth at 10 uM incubated for 48 hrs by sulforhodamine B assay
# Format: cell-based
# Conditions: not given
row,Structure (SMILES),Activity
1,CN(C)C(=O)[C@@H]1CCC(=O)N1,Non-Toxic
2,O=C(NCc1ccc(Cl)cc1Cl)[C@@H]1CCC(=O)N1C(c1ccc(Cl)cc1)c1ccc(Cl)cc1,Non-Toxic
3,O=C(NCc1ccc(Cl)cc1Cl)[C@@H]1CCC(=O)N1c1cncs1,Non-Toxic

# Tested on: COLO 205
# Experiment: Cytotoxicity against human COLO205 cells assessed as effect on cell growth at 10 uM incubated for 48 hrs by sulforhodamine B assay
# Format: cell-based
# Conditions: colo 205, 48 h
row,Structure (SMILES),Activity
1,CN(C)C(=O)[C@@H]1CCC(=O)N1,Non-Toxic
2,O=C(NCc1ccc(Cl)cc1Cl)[C@@H]1CCC(=O)N1C(c1ccc(Cl)cc1)c1ccc(Cl)cc1,Non-Toxic
3,O=C(NCc1ccc(Cl)cc1Cl)[C@@H]1CCC(=O)N1c1cncs1,Non-Toxic

# Tested on: HT-29
# Experiment: Cytotoxicity against human HT-29 cells assessed as effect on cell growth at 10 uM incubated for 48 hrs by sulforhodamine B assay
# Format: cell-based
# Conditions: ht-29, 48 h
row,Structure (SMILES),Activity
1,CN(C)C(=O)[C@@H]1CCC(=O)N1,Non-Toxic
2,O=C(NCc1ccc(Cl)cc1Cl)[C@@H]1CCC(=O)N1C(c1ccc(Cl)cc1)c1ccc(Cl)cc1,Non-Toxic
3,O=C(NCc1ccc(Cl)cc1Cl)[C@@H]1CCC(=O)N1c1cncs1,Non-Toxic

# Tested on: IGROV-1
# Experiment: Cytotoxicity against human IGROV1 cells assessed as effect on cell growth at 10 uM incubated for 48 hrs by sulforhodamine B assay
# Format: cell-based
# Conditions: igrov-1, 48 h
row,Structure (SMILES),Activity
1,CN(C)C(=O)[C@@H]1CCC(=O)N1,Non-Toxic
2,O=C(NCc1ccc(Cl)cc1Cl)[C@@H]1CCC(=O)N1C(c1ccc(Cl)cc1)c1ccc(Cl)cc1,Non-Toxic
3,O=C(NCc1ccc(Cl)cc1Cl)[C@@H]1CCC(=O)N1c1cncs1,Non-Toxic

# Tested on: NCI-H522
# Experiment: Cytotoxicity against human NCI-H522 cells assessed as effect on cell growth at 10 uM incubated for 48 hrs by sulforhodamine B assay
# Format: cell-based
# Conditions: nci-h522, 48 h
row,Structure (SMILES),Activity
1,CN(C)C(=O)[C@@H]1CCC(=O)N1,Non-Toxic
2,O=C(NCc1ccc(Cl)cc1Cl)[C@@H]1CCC(=O)N1C(c1ccc(Cl)cc1)c1ccc(Cl)cc1,Non-Toxic
3,O=C(NCc1ccc(Cl)cc1Cl)[C@@H]1CCC(=O)N1c1cncs1,Non-Toxic

# Tested on: UACC-62
# Experiment: Cytotoxicity against human UACC62 cells assessed as effect on cell growth at 10 uM incubated for 48 hrs by sulforhodamine B assay
# Format: cell-based
# Conditions: uacc-62, 48 h
row,Structure (SMILES),Activity
1,CN(C)C(=O)[C@@H]1CCC(=O)N1,Non-Toxic
2,O=C(NCc1ccc(Cl)cc1Cl)[C@@H]1CCC(=O)N1C(c1ccc(Cl)cc1)c1ccc(Cl)cc1,Non-Toxic
3,O=C(NCc1ccc(Cl)cc1Cl)[C@@H]1CCC(=O)N1c1cncs1,Non-Toxic

# Tested on: SNB-19
# Experiment: Cytotoxicity against human SNB19 cells assessed as effect on cell growth at 10 uM incubated for 48 hrs by sulforhodamine B assay
# Format: cell-based
# Conditions: snb-19, 48 h
row,Structure (SMILES),Activity
1,CN(C)C(=O)[C@@H]1CCC(=O)N1,Non-Toxic
2,O=C(NCc1ccc(Cl)cc1Cl)[C@@H]1CCC(=O)N1C(c1ccc(Cl)cc1)c1ccc(Cl)cc1,Non-Toxic
3,O=C(NCc1ccc(Cl)cc1Cl)[C@@H]1CCC(=O)N1c1cncs1,Non-Toxic

# Tested on: NCI-H23
# Experiment: Cytotoxicity against human NCI-H23 cells assessed as effect on cell growth at 10 uM incubated for 48 hrs by sulforhodamine B assay
# Format: cell-based
# Conditions: nci-h23, 48 h
row,Structure (SMILES),Activity
1,CN(C)C(=O)[C@@H]1CCC(=O)N1,Non-Toxic
2,O=C(NCc1ccc(Cl)cc1Cl)[C@@H]1CCC(=O)N1C(c1ccc(Cl)cc1)c1ccc(Cl)cc1,Non-Toxic
3,O=C(NCc1ccc(Cl)cc1Cl)[C@@H]1CCC(=O)N1c1cncs1,Non-Toxic

# Tested on: HCT-116
# Experiment: Cytotoxicity against human HCT116 cells assessed as effect on cell growth at 10 uM incubated for 48 hrs by sulforhodamine B assay
# Format: cell-based
# Conditions: hct-116, 48 h
row,Structure (SMILES),Activity
1,CN(C)C(=O)[C@@H]1CCC(=O)N1,Non-Toxic
2,O=C(NCc1ccc(Cl)cc1Cl)[C@@H]1CCC(=O)N1C(c1ccc(Cl)cc1)c1ccc(Cl)cc1,Non-Toxic
3,O=C(NCc1ccc(Cl)cc1Cl)[C@@H]1CCC(=O)N1c1cncs1,Non-Toxic

# Tested on: TK-10
# Experiment: Cytotoxicity against human TK10 cells assessed as effect on cell growth at 10 uM incubated for 48 hrs by sulforhodamine B assay
# Format: cell-based
# Conditions: tk-10, 48 h
row,Structure (SMILES),Activity
1,CN(C)C(=O)[C@@H]1CCC(=O)N1,Non-Toxic
2,O=C(NCc1ccc(Cl)cc1Cl)[C@@H]1CCC(=O)N1C(c1ccc(Cl)cc1)c1ccc(Cl)cc1,Non-Toxic
3,O=C(NCc1ccc(Cl)cc1Cl)[C@@H]1CCC(=O)N1c1cncs1,Non-Toxic

# Tested on: PC-3
# Experiment: Cytotoxicity against human PC3 cells assessed as effect on cell growth at 10 uM incubated for 48 hrs by sulforhodamine B assay
# Format: cell-based
# Conditions: pc-3, 48 h
row,Structure (SMILES),Activity
1,CN(C)C(=O)[C@@H]1CCC(=O)N1,Non-Toxic
2,O=C(NCc1ccc(Cl)cc1Cl)[C@@H]1CCC(=O)N1C(c1ccc(Cl)cc1)c1ccc(Cl)cc1,Non-Toxic
3,O=C(NCc1ccc(Cl)cc1Cl)[C@@H]1CCC(=O)N1c1cncs1,Non-Toxic

# Tested on: NCI/ADR-RES
# Experiment: Cytotoxicity against human NCI/ADR-RES cells assessed as effect on cell growth at 10 uM incubated for 48 hrs by sulforhodamine B assay
# Format: cell-based
# Conditions: not given
row,Structure (SMILES),Activity
1,CN(C)C(=O)[C@@H]1CCC(=O)N1,Non-Toxic
2,O=C(NCc1ccc(Cl)cc1Cl)[C@@H]1CCC(=O)N1C(c1ccc(Cl)cc1)c1ccc(Cl)cc1,Non-Toxic
3,O=C(NCc1ccc(Cl)cc1Cl)[C@@H]1CCC(=O)N1c1cncs1,Non-Toxic

# Tested on: HOP-92
# Experiment: Cytotoxicity against human HOP92 cells assessed as effect on cell growth at 10 uM incubated for 48 hrs by sulforhodamine B assay
# Format: cell-based
# Conditions: hop-92, 48 h
row,Structure (SMILES),Activity
1,CN(C)C(=O)[C@@H]1CCC(=O)N1,Non-Toxic
2,O=C(NCc1ccc(Cl)cc1Cl)[C@@H]1CCC(=O)N1C(c1ccc(Cl)cc1)c1ccc(Cl)cc1,Non-Toxic
3,O=C(NCc1ccc(Cl)cc1Cl)[C@@H]1CCC(=O)N1c1cncs1,Non-Toxic

# Tested on: U-251
# Experiment: Cytotoxicity against human U251 cells assessed as effect on cell growth at 10 uM incubated for 48 hrs by sulforhodamine B assay
# Format: cell-based
# Conditions: u-251, 48 h
row,Structure (SMILES),Activity
1,CN(C)C(=O)[C@@H]1CCC(=O)N1,Non-Toxic
2,O=C(NCc1ccc(Cl)cc1Cl)[C@@H]1CCC(=O)N1C(c1ccc(Cl)cc1)c1ccc(Cl)cc1,Non-Toxic
3,O=C(NCc1ccc(Cl)cc1Cl)[C@@H]1CCC(=O)N1c1cncs1,Non-Toxic

# Tested on: Malme-3M
# Experiment: Cytotoxicity against human MALME-3M cells assessed as effect on cell growth at 10 uM incubated for 48 hrs by sulforhodamine B assay
# Format: cell-based
# Conditions: not given
row,Structure (SMILES),Activity
1,CN(C)C(=O)[C@@H]1CCC(=O)N1,Non-Toxic
2,O=C(NCc1ccc(Cl)cc1Cl)[C@@H]1CCC(=O)N1C(c1ccc(Cl)cc1)c1ccc(Cl)cc1,Non-Toxic
3,O=C(NCc1ccc(Cl)cc1Cl)[C@@H]1CCC(=O)N1c1cncs1,Non-Toxic
